Measurements published in US8889878B2, “Haloalky-substituted amides as insecticides and acaricides” (Bayer CropScience AG, priority 2009, dated 2014).

Columns and labels:
[1] = system: armyworm (Spodoptera frugiperda); assay: Spodoptera frugiperda test (SPODFR spray treatment), Example 15; type: in vivo; conditions: maize leaf discs sprayed, after 7 days; for pest or weed control at 100 g/ha / pest or weed control at 500 g/ha: Spodoptera frugiperda, foliar, 168 h, read-out: efficacy in %
Summary of the method: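 Caterpillars placed on dried, sprayed Zea mays leaf discs; formulation of acetone, dimethylformamide and emulsifier diluted with emulsifier-containing water to test concentration. Percent kill scored on day 7.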

[2] = system: green peach aphid (Myzus persicae); assay: Myzus test (MYZUPE spray treatment), Example 17; type: in vivo; conditions: application rate 100 g/ha, china cabbage leaf discs sprayed, after 6 days
Summary of the method: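 Efficacy recorded at 6 days as % kill, where 100% means every aphid dead and 0% none. Spray applied to Brassica pekinensis leaf discs bearing mixed-stage aphids; active ingredient dissolved in acetone with dimethylformamide and emulsifier, then diluted with emulsifier-containing water.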

[3] = system: red spider mite (Tetranychus urticae); assay: Tetranychus test; OP-resistant (TETRUR spray treatment), Example 18; type: in vivo; conditions: common bean leaf discs sprayed, after 6 days; for pest or weed control at 100 g/ha / pest or weed control at 500 g/ha: Tetranychus urticae, foliar, 144 h, read-out: efficacy in %; for pest or weed control at 100 g/ha: application rate 100 g/ha
Experimental: Tetranychus Test; OP-Resistant (TETRUR Spray Treatment)
• Solvent: 78.0 parts by weight of acetone • 1.5 parts by weight of dimethylformamide • Emulsifier: 0.5 part by weight of alkylaryl polyglycol ether
To prepare an appropriate active ingredient formulation, 1 part by weight of active ingredient is mixed with the stated amounts of solvent and emulsifier, and the concentrate is diluted with emulsifier-containing water to the desired concentration. Leaf discs from the common bean (Phaseolus vulgaris) infested by all stages of the red spider mite (Tetranychus urticae) are sprayed with an active ingredient formulation of the desired concentration.
After 6 days, the efficacy in % is determined. 100% means that all spider mites were killed; 0% means that no spider mites were killed.

[4] = system: mustard beetle (Phaedon cochleariae); assay: Phaedon test (PHAECO spray treatment), Example 16; type: in vivo; conditions: china cabbage leaf discs sprayed, after the desired time; for pest or weed control at 100 g/ha / pest or weed control at 500 g/ha: Phaedon cochleariae, foliar, read-out: efficacy in %; for pest or weed control at 100 g/ha: application rate 100 g/ha
Summary of the method: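 Chinese cabbage leaf discs sprayed with acetone/DMF-emulsifier formulation of active ingredient diluted in emulsifier-containing water, then infested with mustard beetle larvae after drying. Efficacy scored as % larval kill (100% = all killed, 0% = none) after the chosen time.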

[5] = logP by HPLC on reverse-phase column (EEC Directive 79/831 Annex V.A8); type: physicochemical; conditions: for chromatographic logP: reverse-phase C18 HPLC column
Experimental: The logP values reported in the above Tables and Preparation Examples were determined according to EEC Directive 79/831 Annex V.A8 by HPLC (High Performance Liquid Chromatography) on a reverse-phase column (C18). Temperature 43° C.

[6] = system: red spider mite (Tetranychus urticae); assay: Tetranychus test, OP-resistant (TETRUR spray treatment), Example 8; type: in vivo; conditions: application rate 20 g/ha, common bean leaf discs sprayed, after 6 days
Summary of the method: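 Bean (Phaseolus vulgaris) leaf discs carrying all stages of OP-resistant Tetranychus urticae sprayed with compound in acetone/DMF with emulsifier, diluted in water to the test concentration. Mortality scored after 6 days as % efficacy (100% = all mites killed).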

[7] = system: mustard beetle (Phaedon cochleariae); assay: Phaedon test (PHAECO spray treatment), Example 7; type: in vivo; conditions: application rate 20 g/ha, china cabbage leaf discs sprayed, after 7 days
Summary of the method: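 Spray formulation (acetone/DMF with alkylaryl polyglycol ether, diluted in emulsifier-containing water) applied to Chinese cabbage leaf discs, which were dried and then stocked with mustard beetle larvae. Efficacy scored at 7 days as % larvae killed (100% all, 0% none).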

Boophilus microplus [8] = assay: Boophilus microplus test (BOOPMI injection), Example 11; type: in vivo; conditions: application rate 20 μg/animal, injected into abdomen, after 7 days; for pest or weed control at 0.02 mg: Rhipicephalus microplus, 168 h, read-out: efficacy in % (fertile eggs laid)
Summary of the method: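 Efficacy rated from fertile egg laying: 100% means none of the ticks laid fertile eggs, read after 7 days. Compound, dissolved and diluted in DMSO, was delivered by abdominal injection, and ticks were kept in dishes under climate control.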

[9] = system: Boophilus microplus females of the SP-resistant Parkhurst strain; assay: Boophilus microplus test (DIP), Example 10; type: in vivo; conditions: application rate 100 ppm, after 7 days
Experimental: Boophilus microplus Test (DIP)
Test animals: adult engorged Boophilus microplus females of the SP-resistant Parkhurst strain • Solvent: dimethyl sulphoxide
10 mg of active ingredient are dissolved in 0.5 ml of dimethyl sulphoxide. For the purpose of preparing a suitable formulation, the active ingredient solution is diluted with water to the concentration desired in each case.
This active ingredient formulation is pipetted into tubes. 8-10 ticks are transferred into a further tube with holes. The tube is immersed into the active ingredient formulation, and all ticks are completely wetted. After the liquid has run out, the ticks are transferred onto filter discs in plastic dishes and stored in a climate-controlled room. The efficacy is assessed after 7 days by the number of fertile eggs laid. Eggs whose fertility is not outwardly visible are stored in glass tubes in a climate-controlled cabinet until the larvae hatch. Efficacy of 100% means that none of the ticks has laid any fertile eggs.

Ctenocephalides felis = Ctenocephalides felis oral (CTECFE), Example 12; type: in vivo; conditions: application rate 100 ppm in citrated cow's blood, after 2 days
Experimental: Ctenocephalides felis Oral ([…]) • Solvent: 1 part by weight of dimethyl sulphoxide For the purpose of preparing an appropriate active ingredient formulation, 10 mg of active ingredient are mixed with 0.5 ml of dimethyl sulphoxide. A portion of the concentrate is diluted with citrated cow's blood and the desired concentration is established. About 20 unfed adult fleas (Ctenocephalides felis) are placed into a chamber sealed at the top and bottom with gauze. A metal cylinder with its lower end sealed with Parafilm is placed onto the chamber. The cylinder contains the blood-active ingredient preparation, which can be consumed by the fleas through the Parafilm membrane. After 2 days, the kill rate in % is determined. 100% means that all fleas were killed; 0% means that no fleas were killed.

Boophilus microplus [10] = assay: Boophilus microplus test (BOOPMI injection), Example 1; type: in vivo; conditions: application rate 20 μg/animal, injected into abdomen, after 7 days
Summary of the method: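 Compound in DMSO, diluted with water, injected into the abdomen of engorged ticks, which were then held in a climate-controlled room. Efficacy was scored after 7 days from fertile egg laying, with 100% meaning no tick laid fertile eggs.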

Musca domestica adults = assay: Musca domestica test (MUSCDO), Example 14; type: in vivo; conditions: application rate 100 ppm, treated sponge, after 2 days
Summary of the method: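 Compound dissolved in DMSO and diluted in water to the test concentration, then applied to a sponge in vessels holding adult flies. Percent kill scored after 2 days (100% = all flies dead).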

[11] = pH 2.7, HPLC, C18 reverse phase, 43° C., acidic range pH 2.7, calibration with alkan-2-ones

Structure (SMILES)	chromatographic logP [5, 11]	pest or weed control at 100 g/ha [3]	pest or weed control at 100 g/ha [4]	efficacy in % [7]	logP ([5]; HPLC-MS)	efficacy in % (fertile eggs laid) (Boophilus microplus [8])	kill rate in % (efficacy) (Ctenocephalides felis)	other results
Cc1cc(/C=C/C(=O)NC(c2cccc(C(F)(F)F)c2)C(F)(F)F)ccc1C(=O)NCC(F)F (centres unmarked) [Ia-100]				100%	HPLC-MS: logP = 3.13 mass			efficacy in % ([1]; application rate 500 g/ha): Ia-100%; efficacy in % ([3]; application rate 500 g/ha): Ia-100%; efficacy in % [6]: 80%; efficacy in % ([4]; application rate 500 g/ha): Ia-100%
CC(NC(=O)c1ccc(/C=C/C(=O)NC(c2cccc(C(F)(F)F)c2)C(F)(F)F)cc1Cl)C1CC1 (centres unmarked) [Ia-114]				100%	HPLC-MS: logP = 3.68 mass	100%		efficacy in % [6]: 100%; efficacy in % (fertile eggs laid) [9]: 85%
O=C(/C=C/c1ccc(C(=O)NC2CSC2)c(C(F)(F)F)c1)NC(c1cccc(C(F)(F)F)c1)C(F)(F)F (centres unmarked) [Ia-130, 4-[(1E)-3-oxo-3-({2,2,2-trifluoro-1-[3-(trifluoromethyl)phenyl]ethyl}-amino)prop-1-en-1-yl]-N-(thietan-3-yl)-2-(trifluoromethyl)benzamide]		80%	100%					pest or weed control at 0.02 mg (Boophilus microplus [8]): 100%; efficacy in % [2]: 100%; chromatographic logP ([5]; HPLC-MS): 3.62
O=C(/C=C/c1ccc(C(=O)NC(CF)CF)c(Cl)c1)NC(c1cccc(C(F)(F)F)c1)C(F)(F)F (centres unmarked) [Ia-155]					HPLC-MS: logP = 3.36; mass	100%		efficacy in % ([1]; application rate 100 g/ha): 83%; efficacy in % [2]: 100%; efficacy in % (fertile eggs laid) [9]: 90%
Cn1cnc(CNC(=O)c2ccc(/C=C/C(=O)NC(c3cccc(C(F)(F)F)c3)C(F)(F)F)cc2C(F)(F)F)c1 (centres unmarked) [Ia-76]				100%	HPLC-MS: logP = 1.72; mass	100%	80%	efficacy in % (fertile eggs laid) (Boophilus microplus [10]): 100%
Cc1cc(/C=C/C(=O)NC(c2cccc(C(F)(F)F)c2)C(F)(F)F)ccc1C(=O)NCC(F)(F)F (centres unmarked) [Ia-18]					HPLC-MS: logP = 3.56; mass	100%	98%	kill rate in % (efficacy) (Musca domestica adults): 90%
C#CC(C)(C)NC(=O)c1ccc(/C=C/C(=O)NC(c2cccc(C(F)(F)F)c2)C(F)(F)F)cc1C(F)(F)F (centres unmarked) [Ia-146]					HPLC-MS: logP = 3.8; mass	100%	90%	efficacy in % ([1]; application rate 100 g/ha): 100%

Continued, in another order:

chromatographic logP [5, 11]	Structure (SMILES)	pest or weed control at 100 g/ha [3]	pest or weed control at 100 g/ha [4]	efficacy in % [7]	logP ([5]; HPLC-MS)	efficacy in % (fertile eggs laid) (Boophilus microplus [8])	kill rate in % (efficacy) (Ctenocephalides felis)	other results
3.27	O=C(/C=C/c1cc(C(F)(F)F)c(C(=O)NC2CC2)cn1)NC(c1cccc(C(F)(F)F)c1)C(F)(F)F (centres unmarked) [If-2, N-Cyclopropyl-6-[(1E)-3-oxo-3-({2,2,2-trifluoro-1-[3-(trifluoromethyl)phenyl]ethyl}amino)-prop-1-en-1-yl]-4-(trifluoromethyl)nicotinamide]	100%	100%					pest or weed control at 100 g/ha ([1]; application rate 100 g/ha): 83%; efficacy in % [2]: 100%
3.39	O=C(/C=C/c1cccc(NC(=O)c2cccnc2Cl)c1)NC(c1cccc(C(F)(F)F)c1)C(F)(F)F (centres unmarked) [Ia-5, 2-Chloro-N-{3-[(1E)-3-oxo-3-({2,2,2-trifluoro-1-[3-(trifluoromethyl)phenyl]ethyl}amino)prop-1-en-1-yl]phenyl}nicotinamide]						80%	pest or weed control at 0.02 mg (Boophilus microplus [8]): 100%; efficacy in % (fertile eggs laid) (Boophilus microplus [10]): 100%; pest or weed control at 500 g/ha ([4]; application rate 500 g/ha): 100%
3	CC(=O)NC1CCc2cc(/C=C/C(=O)NC(c3cccc(C(F)(F)F)c3)C(F)(F)F)ccc21 (centres unmarked) [Ie-1, (2E)-3-(1-Acetamido-2,3-dihydro-1H-inden-5-yl)-N-{2,2,2-trifluoro-1-[3-(trifluoromethyl)-phenyl]ethyl}acrylamide]	90%	100%					pest or weed control at 100 g/ha ([1]; application rate 100 g/ha): 100%
3.78	CC(C)C(=O)NCc1ccc(/C=C/C(=O)NC(c2cccc(C(F)(F)F)c2)C(F)(F)F)cc1C(F)(F)F (centres unmarked) [Ia-266, (2E)-3-{4-[(Isobutyrylamino)methyl]-3-(trifluoromethyl)phenyl}-N-{2,2,2-trifluoro-1-[3-(trifluoromethyl)phenyl]ethyl}acrylamide]	90%	100%					pest or weed control at 100 g/ha ([1]; application rate 100 g/ha): 100%
3.08	O=C(NC(c1cccc(C(F)(F)F)c1)C(F)(F)F)c1cc2cc(C(=O)NC3CC3)c(Cl)cc2[nH]1 (centres unmarked) [Ic-24, 6-Chloro-N^5-cyclopropyl-N^2-{2,2,2-trifluoro-1-[3-(trifluoromethyl)phenyl]ethyl}-1H-indole-2,5-dicarboxamide]			100%				pest or weed control at 0.02 mg (Boophilus microplus [8]): 100%; pest or weed control at 500 g/ha ([1]; application rate 500 g/ha): 100%; pest or weed control at 500 g/ha ([3]; application rate 500 g/ha): 100%; pest or weed control at 500 g/ha ([4]; application rate 500 g/ha): 100%
3.68	C=CCNC(=O)c1cc2cc(C(=O)NC(c3cccc(C(F)(F)F)c3)C(F)(F)F)n(C)c2cc1Cl (centres unmarked) [Ic-32, N^5-Allyl-6-chloro-1-methyl-N^2-{2,2,2-trifluoro-1-[3-(trifluoromethyl)phenyl]ethyl}-1H-indole-2,5-dicarboxamide]							pest or weed control at 500 g/ha ([1]; application rate 500 g/ha): 100%; pest or weed control at 500 g/ha ([3]; application rate 500 g/ha): 100%; pest or weed control at 500 g/ha ([4]; application rate 500 g/ha): 100%
